Data taken from the CheMixHub ionic liquid set.

Assay: xn = mol fraction of the nth substance listed

CS(=O)(=O)[O-].C[N+](C)(CCO)CCO + CO
viscosity [mPa·s], 101 kPa
Conditions | x1 = 0.1 | x1 = 0.1996 | x1 = 0.3001 | x1 = 0.4004 | x1 = 0.5005 | x1 = 0.5976 | x1 = 0.7022 | x1 = 0.8012 | x1 = 0.9012 | x1 = 1
298.15 K | 2.03 | 5.81 | 14.8 | 34.4 | 74.1 | 164 | 316 | 566 | 940 | 1495
303.15 K | 1.85 | 5.12 | 12.57 | 28.1 | 58.3 | 125.1 | 231 | 402 | 656 | 1021
308.15 K | 1.69 | 4.55 | 10.99 | 23.3 | 46.7 | 86.6 | 175 | 296 | 469 | 716
313.15 K | 1.55 | 4.06 | 9.61 | 19.6 | 38 | 68.4 | 134.1 | 222 | 344 | 513
318.15 K | 1.431 | 3.64 | 8.35 | 16.6 | 31.3 | 54.9 | 105.2 | 170 | 258 | 378
323.15 K | 1.323 | 3.29 | 7.37 | 14.24 | 26.1 | 44.7 | 75.7 | 132.2 | 197 | 282

CCCC[n+]1ccc(C)cc1.[Br-] + CO/N=C(\C(=O)N[C@@H]1C(=O)N2C(C(=O)[O-])=C(CSc3nc(=O)c(=O)[n-]n3C)CS[C@H]12)c1csc(N)n1.[Na+].[Na+] + O
viscosity [mPa·s], 100 kPa
Conditions | 288.15 K | 293.15 K | 298.15 K | 303.15 K | 308.15 K
x2 = 0, x1 = 0.0007903 | 1.165 | 1.024 | 0.907 | 0.813 | 0.734
x2 = 0, x1 = 0.001191 | 1.176 | 1.037 | 0.919 | 0.824 | 0.745
x2 = 0, x1 = 0.001595 | 1.195 | 1.044 | 0.926 | 0.833 | 0.75
x2 = 0.0008523, x1 = 0.0007896 | 1.293 | 1.134 | 0.998 | 0.892 | 0.805
x2 = 0.0008581, x1 = 0.00119 | 1.321 | 1.176 | 1.024 | 0.918 | 0.827
x2 = 0.001389, x1 = 0.0007891 | 1.39 | 1.219 | 1.077 | 0.965 | 0.863
x2 = 0.001401, x1 = 0.001593 | 1.423 | 1.241 | 1.103 | 0.989 | 0.884
x2 = 0.001946, x1 = 0.0007887 | 1.504 | 1.31 | 1.157 | 1.035 | 0.931
x2 = 0.001971, x1 = 0.001189 | 1.511 | 1.342 | 1.183 | 1.055 | 0.948
x2 = 0.001975, x1 = 0.001592 | 1.545 | 1.355 | 1.192 | 1.065 | 0.954
x2 = 0.002543, x1 = 0.0007882 | 1.632 | 1.427 | 1.256 | 1.12 | 1.007
x2 = 0.002544, x1 = 0.001591 | 1.673 | 1.464 | 1.295 | 1.152 | 1.031
x2 = 0.003109, x1 = 0.001187 | 1.806 | 1.567 | 1.379 | 1.224 | 1.096
x2 = 0.003138, x1 = 0.0007878 | 1.767 | 1.543 | 1.364 | 1.213 | 1.086
x2 = 0.003151, x1 = 0.00159 | 1.823 | 1.589 | 1.399 | 1.244 | 1.113
x2 = 0.003944, x1 = 0.001186 | 2.024 | 1.764 | 1.544 | 1.369 | 1.222
x2 = 0.003953, x1 = 0.0007871 | 1.993 | 1.729 | 1.519 | 1.351 | 1.208
x2 = 0.003986, x1 = 0.001589 | 2.106 | 1.787 | 1.577 | 1.395 | 1.245
x2 = 0.004811, x1 = 0.001588 | 2.346 | 2.022 | 1.772 | 1.562 | 1.389
x2 = 0.004834, x1 = 0.0007864 | 2.266 | 1.959 | 1.718 | 1.524 | 1.35
x2 = 0.004855, x1 = 0.001185 | 2.32 | 2.01 | 1.757 | 1.552 | 1.38
x2 = 0.005536, x1 = 0.0007859 | 2.52 | 2.173 | 1.904 | 1.68 | 1.492
x2 = 0.005537, x1 = 0.001184 | 2.56 | 2.232 | 1.937 | 1.706 | 1.514
x2 = 0.005566, x1 = 0.001586 | 2.63 | 2.267 | 1.983 | 1.738 | 1.544
